Columns and labels:
HsPDF [1] = molecular target: T1, HsPDF (Homo sapiens, UniProt Q9HBH1); assay: HsPDF %I 100uM
T1 construct: A 63 amino acid N-terminally truncated human peptide deformylase (HsPDF); 6His (C); made in house; host or cells: E. coli BL21 (DE3), co-transformed with the GroES/EL chaperone plasmid
Experimental: (§1) Table printed on a drawing sheet, Figure 5
Head of the field: HsPDF %I 100uM
(§2) Footnotes: -26 124 % inhibition
(§3) The patent's description of the figure: FIG. 5.
Where the first naming reader finds the target: head: HsPDF %I 100uM

EcPDF [2] = system: EcPDF
Experimental: Head of the field: EcPDF %I 10uM
(§4) Specificity profiling of the derivatives of benzofuran-4,5-diones.
Where the first naming reader finds the target: head: EcPDF %I 10uM

EcPDF [3] = system: EcPDF; remark: listed apart in the source
Experimental: Head of the field: EcPDF %I 100uM
as §4
Where the first naming reader finds the target: head: EcPDF %I 100uM

APN = APN %I 100uM
Experimental: as §1
Head of the field: APN %I 100uM
as §2, §3
Where the first naming reader finds the target: head: APN %I 100uM

HsPDF [4] = molecular target: T1, HsPDF; assay: HsPDF %I 10uM
Experimental: as §1
Head of the field: HsPDF %I 10uM
as §2, §3
Where the first naming reader finds the target: head: HsPDF %I 10uM

HsPDF [5] = molecular target: T2, HsPDF (Homo sapiens, UniProt Q9HBH1); assay: FLUO functional assay (fluorescamine, substrate fMAHA); type: biochemical; details: 0.5 μM HsPDF, upper limit 10 μM compound
T2 construct: A 63 amino acid N-terminally truncated human peptide deformylase (HsPDF); 6His (C); made in house; host or cells: E. coli BL21 (DE3), co-transformed with the GroES/EL chaperone plasmid
T2 sequence (Q9HBH1 64-243 limits assumed): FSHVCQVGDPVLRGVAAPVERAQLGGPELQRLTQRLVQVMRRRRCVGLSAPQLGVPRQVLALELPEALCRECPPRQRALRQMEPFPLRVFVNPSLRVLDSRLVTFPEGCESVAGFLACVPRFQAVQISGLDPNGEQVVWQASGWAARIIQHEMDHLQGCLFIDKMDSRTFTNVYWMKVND
Experimental: High controls consisted of 1% DMSO (v/v). […] The deformylation reaction mixture was incubated for one hour at room temperature. A separate set of plates containing 3 μL of fluorescamine at 1 mg/mL in 100% DMSO was prepared for the labeling step. Then, 17 μL of the reaction mixture from the original set of plates was transferred to the plates containing the fluorescamine solution for the labeling step. The readout was performed on a Perkin Elmer VICTOR^3 V™ Multi label counter, using an excitation wavelength of 355 nm, and an emission wavelength of 460 nm. […] Compounds inducing a variation of fluorescence greater than 20% were flagged as optically active compounds.
High controls consisted of 1% DMSO (v/v). […] The deformylation reaction mixture was incubated for one hour at room temperature. A separate set of plates containing 3 μL of fluorescamine at 1 mg/mL in 100% DMSO was prepared for the labeling step. Then, 17 μL of the reaction mixture from the original set of plates was transferred to the plates containing the fluorescamine solution for the labeling step. The readout was performed on a Perkin Elmer VICTOR3 V™ Multi label counter, using an excitation wavelength of 355 nm, and an emission wavelength of 460 nm.

MMP-1 = MMP-1 %I 100uM
Experimental: as §1
Head of the field: MMP-1 %I 100uM
as §2, §3
Where the first naming reader finds the target: head: MMP-1 %I 100uM

Row | SMILES | HsPDF %I 100uM (HsPDF [1]) | EcPDF %I 10uM (EcPDF [2]) | EcPDF %I 100uM (EcPDF [3]) | APN %I 100uM (APN) | HsPDF %I 10uM (HsPDF [4]) | IC50 (HsPDF [5]) | MMP-1 %I 100uM (MMP-1)
1 | COc1ccc(C(=O)c2coc3ccc(O)c(Br)c23)cc1 [SKC-BF-Int7C, (4-Bromo-5-hydroxy-benzofuran-3-yl)-(4-methoxyphenyl)-methanone] | -20 %I | -4 %I | -4 %I | -14 %I | 3 %I |  | 
2 | O=C1C(=O)c2c(C(=O)c3ccccc3)coc2C(Br)=C1Br [SKI 417508, 3-benzoyl-6,7-dibromobenzofuran-4,5-dione] |  |  |  |  |  | 3400 nM | 
3 | COc1ccc(C(=O)c2coc3c2C(=O)C(=O)c2ccccc2-3)cc1OC [SKC-NF-02, 3-(3,4-Dimethoxy-benzoyl)-naphtho[1,2-b]furan-4,5-dione] | 36 %I | 17 %I | 30 %I | 20 %I | 18 %I |  | 21 %I
4 | COc1cc(C(=O)c2coc3c2C(=O)C(=O)c2ccccc2-3)cc(OC)c1OC [SKC-NF-03, 3-(3,4,5-Trimethoxy-benzoyl)-naphtho[1,2-b]furan-4,5-dione] |  | 18 %I | 21 %I |  | 25 %I |  | 21 %I
5 | O=C1C(=O)c2c(C(=O)c3ccc(C(=O)O)cc3)coc2C(Br)=C1Br [SKI 417518, 4-(6,7-dibromo-4,5-dioxo-4,5-dihydrobenzofuran-3-carbonyl)benzoic acid] |  |  |  |  |  | 2300 nM | 
6 | COc1ccc(C(=O)c2coc3c2C(=O)C(=O)C(Cl)=C3Cl)cc1 [SKC-BF-05, 6,7-Dichloro-3-(4-methoxy-benzoyl)-benzofuran-4,5-dione] |  | 0 %I | 1 %I |  |  |  | -19 %I
7 | O=C(c1ccccc1)c1coc2ccc(O)cc12 [SKC-BF-Int3, (5-Hydroxy-benzofuran-3-yl)-phenyl-methanone] |  | 7 %I | 7 %I |  |  |  | 
8 | COc1ccc(C(=O)c2coc3c(Cl)c(Cl)c(O)cc23)cc1 [SKC-BF-Int10F, (6,7-Dichloro-5-hydroxy-benzofuran-3-yl)-(4-methoxyphenyl)-methanone] |  |  |  | -4 %I | 4 %I |  | 
9 | COc1ccc(C(=O)c2coc3ccc(O)cc23)cc1OC [SKC-BF-Int13, (3,4-Dimethoxy-phenyl)-(5-hydroxy-benzofuran-3-yl)-methanone] | 8 %I | -26 %I | 7 %I |  | -6 %I |  | 3 %I
10 | COc1cc(C(=O)c2coc3c2C(=O)C(=O)C(Cl)=C3Cl)cc(OC)c1OC [SKC-BF-11, 6,7-Dichloro-3-(3,4,5-trimethoxy-benzoyl)-benzofuran-4,5-dione] |  |  | 27 %I |  |  |  | 32 %I
11 | COc1ccc(C(=O)c2coc3c(Br)cc(O)c(Br)c23)cc1 [SKC-BF-Int7D, (4,7-Dibromo-5-hydroxy-benzofuran-3-yl)-(4-methoxy-phenyl)-methanone] | -9 %I |  | -8 %I |  | 0 %I |  | 
12 | O=C(c1ccccc1)c1coc2c(Cl)c(Cl)c(O)cc12 [SKC-BF-Int4, (6,7-Dichloro-5-hydroxy-benzofuran-3-yl)-phenyl-methanone] | 24 %I | 6 %I | 1 %I | 6 %I | 8 %I |  | -20 %I
13 | COc1ccc(C(=O)c2coc3ccc(O)cc23)cc1 [SKC-BF-Int9, (5-Hydroxy-benzofuran-3-yl)-(4-methoxyphenyl)-methanone] |  | 5 %I |  | 4 %I |  |  | 
14 | COc1ccc(C(=O)c2coc3c2C(=O)C(=O)C=C3Cl)cc1 [SKC-BF-03, 7-Chloro-3-(4-methoxybenzoyl)-benzofuran-4,5-dione] |  | -6 %I |  |  |  |  | 
15 | COc1ccc(C(=O)c2coc3c(Br)c(Br)c(O)cc23)cc1OC [SKC-BF-Int14, (6,7-Dibromo-5-hydroxy-benzofuran-3-yl)-(3,4-dimethoxy-phenyl)-methanone] |  | 3 %I | -20 %I | -6 %I | 3 %I |  | -20 %I
16 | COc1ccc(C(=O)c2coc3c(Cl)cc(O)c(Cl)c23)cc1 [SKC-BF-Int10E, (4,7-Dichloro-5-hydroxy-benzofuran-3-yl)-(4-methoxy-phenyl)-methanone] | 9 %I |  | -4 %I | -4 %I |  |  | -4 %I
17 | COc1cc(C(=O)c2coc3c(Br)c(Br)c(O)cc23)cc(OC)c1OC [SKC-BF-Int21, (6,7-Dibromo-5-hydroxy-benzofuran-3-yl)-(3,4,5-trimethoxy-phenyl)methanone] | 5 %I | 4 %I | 7 %I |  |  |  | 
18 | COc1ccc(C(=O)c2coc3cc(Cl)c(O)c(Cl)c23)cc1 [SKC-BF-Int10D, (4,6-Dichloro-5-hydroxy-benzofuran-3-yl)-(4-methoxyphenyl)-methanone] | 26 %I | 4 %I | 3 %I |  | 21 %I |  | 
19 | COc1ccc(C(=O)c2coc3c2C(=O)C(=O)C(Br)=C3)cc1 [SKC-BF-06, 6-Bromo-3-(4-methoxybenzoyl)-benzofuran-4,5-dione] |  |  |  |  | 29 %I |  | 
20 | COc1cc(C(=O)c2coc3c(Cl)c(Cl)c(O)cc23)cc(OC)c1OC [SKC-BF-Int22, (6,7-Dichloro-5-hydroxy-benzofuran-3-yl)-(3,4,5-trimethoxy-phenyl)methanone] | 18 %I | 4 %I | 2 %I | 2 %I |  |  | -14 %I
21 | COc1ccc(C(=O)c2coc3c(Cl)c(Cl)c(O)cc23)cc1OC [SKC-BF-Int16, (6,7-Dichloro-5-hydroxy-benzofuran-3-yl)-(3,4-dimethoxy-phenyl)-methanone] | -21 %I | 4 %I | -6 %I |  | -24 %I |  | 
22 | O=C1C(=O)c2c(C(=O)c3ccc(-n4ccnc4)cc3)coc2C(Br)=C1Br [SKI 417499, 3-(4-(1H-imidazol-1-yl)benzoyl)-6,7-dibromobenzofuran-4,5-dione] |  |  |  |  |  | 1800 nM | 
23 | COc1ccc(C(=O)c2coc3cc(Br)c(O)cc23)cc1 [SKC-BF-Int7A, (6-Bromo-5-hydroxy-benzofuran-3-yl)-(4-methoxyphenyl)-methanone] | -5 %I | -8 %I | -14 %I | -17 %I | -17 %I |  | 
24 | COc1ccc(C(=O)c2coc3c(Br)cc(O)cc23)cc1 [SKC-BF-Int7B, (7-Bromo-5-hydroxy-benzofuran-3-yl)-(4-methoxyphenyl)-methanone] |  | 18 %I | 9 %I | -5 %I |  |  | -19 %I
25 | COc1cc(C(=O)c2coc3ccc(O)cc23)cc(OC)c1OC [SKC-BF-Int19] | 31 %I |  | 7 %I |  | 4 %I |  | 19 %I

Reference: patent US8614237B2, “Benzofuran-4,5-diones as selective peptide deformylase inhibitors” (Sloan-Kettering Institute for Cancer Research, priority 2009, dated 2013)
